{
  "source": "patent US11969476B2",
  "about": "“Antibody molecule-drug conjugates and uses thereof” (priority 2020, dated 2024)",
  "molecules": {"B1": {"name": "actoxumab-D297: sham-conjugate prepared using a non-P. aeruginosa targeting antibody (actoxumab) (conjugate, chains of the INN, looked up)", "VH": "QVQLVESGGGVVQPGRSLRLSCAASGFSFSNYGMHWVRQAPGKGLEWVALIWYDGSNEDYTDSVKGRFTISRDNSKNTLYLQMNSLRAEDTAVYYCARWGMVRGVIDVFDIWGQGTVVTVSS", "VL": "DIQMTQSPSSVSASVGDRVTITCRASQGISSWLAWYQHKPGKAPKLLIYAASSLQSGVPSRFSGSGSGTDFTLTISSLQPEDFATYYCQQANSFPWTFGQGTKVEIK", "modifications": "D297 payload; sham conjugate"}},
  "key": {"[1]": {"tested_on": "Pae 39324", "assay": "MIC determination (CLSI, 2-fold serial dilutions)", "type": "cell-based, Pseudomonas aeruginosa", "method": "(§1) Assessment of Antimicrobial Activity. […] All plates were placed at 37° C. overnight. After 18 hours the plates were read using a mirrored plate reader and reflected incandescent light. […] Wells at and above the MIC should appear void of growth when read by eye."}, "[2]": {"tested_on": "Pae 27853", "assay": "MIC determination (CLSI, 2-fold serial dilutions)", "type": "cell-based, Pseudomonas aeruginosa", "method": "as §1"}, "[3]": {"tested_on": "human red blood cells"}, "[4]": {"tested_on": "P. aeruginosa BAA-2113", "settings": "strain BAA-2113, isolated from human sputum; cited from earlier work"}, "[5]": {"assay": "Cytotoxicity to mammalian cells", "settings": "human, 293T cells"}, "[6]": {"assay": "MIC in human serum (hsMIC) relative to MIC", "type": "cell-based", "settings": "NA, no active in human serum", "procedure": "In an embodiment, the MIC is determined in the presence of phosphate-buffered saline (PBS). In an embodiment, the MIC or hsMIC is determined on per ADC basis. In an embodiment, the MIC or hsMIC is determined on per payload or antimicrobial peptide basis."}, "[7]": {"tested_on": "P. aeruginosa BAA-2114", "set-up": "key: R = Resistant; S = Suspectible; I = Intermediate; NT = Note Tested", "settings": "strain BAA-2114, isolated from human sputum; cited from earlier work"}, "[8]": {"tested_on": "P. aeruginosa BAA-2110", "set-up": "key: R = Resistant; S = Suspectible; I = Intermediate; NT = Note Tested", "settings": "strain BAA-2110, isolated from human sputum; cited from earlier work"}, "[9]": {"tested_on": "P. aeruginosa BAA-2112", "set-up": "key: R = Resistant; S = Suspectible; I = Intermediate; NT = Note Tested", "settings": "strain BAA-2112, isolated from human sputum; cited from earlier work"}, "[10]": {"tested_on": "Eco 25922", "assay": "MIC determination (CLSI, 2-fold serial dilutions)", "type": "cell-based, E. coli", "method": "as §1"}, "[11]": {"tested_on": "P. aeruginosa BAA-2111", "set-up": "key: R = Resistant; S = Suspectible; I = Intermediate; NT = Note Tested", "settings": "strain BAA-2111, isolated from human sputum; cited from earlier work"}, "[12]": {"tested_on": "Sau 29213", "assay": "MIC determination (CLSI, 2-fold serial dilutions)", "type": "cell-based, S. Aureus", "method": "as §1"}, "[13]": {"tested_on": "P. aeruginosa BAA-2109", "set-up": "key: R = Resistant; S = Suspectible; I = Intermediate; NT = Note Tested", "settings": "strain BAA-2109, isolated from human sputum; cited from earlier work"}, "[14]": {"tested_on": "P. aeruginosa BAA-2108", "set-up": "key: R = Resistant; S = Suspectible; I = Intermediate; NT = Note Tested", "settings": "strain BAA-2108, isolated from human sputum; cited from earlier work"}, "[15]": {"tested_on": "293T", "assay": "Cytotoxicity to mammalian cells", "settings": "in words"}, "[16]": {"settings": "in words, human serum", "procedure": "Assessment of Serum Stability. […] Twenty μl of each test article was placed in a 2.0 ml round bottom microfuge tube. […] Assay tubes were placed at 37° C. in a rotating rack between time-points. […] Supernatant from each tube was collected and frozen at −20° C. for analysis. Samples were harvested and processed at various time-points up to 6 hours."}, "[17]": {"tested_on": "human red blood cells", "assay": "Red blood cell hemolysis (MLC, PLC)", "settings": "in words"}, "[18]": {"tested_on": "P. aeruginosa", "assay": "MIC testing of antimicrobial peptides (screen)", "type": "cell-based", "settings": "in words", "excerpt": "Initially, a bioinformatics-driven workflow (mine public database of AMPs (YADAMP)→cluster AMPs by properties→evaluate activity and toxicity) was utilized to select AMPs for experimental characterization to identify potent payloads with a high therapeutic index (FIG. 7A). […] To facilitate identification of AMPs for use in an ADC, a screening strategy that clustered peptides based on their underlying physicochemical properties was implemented, followed by characterization of representative members from each cluster. Here YADAMP, a database of AMPs that contains over 2,500 sequences of peptides with reported antibacterial activity, was used. Clustering was performed by utilizing a K-means algorithm using calculated properties that have been reported to be relevant to antimicrobial activity (peptide length, predicted helicity, predicted hydropathy, percentage of select amino acids [Lys, Arg, Trp, Cys, His], and charge at pH7, pH5, and pH9). […] Once potent peptides with favorable characteristics were identified, the remaining members of the corresponding clusters were then selected for experimental characterization. […]\nAssessment of Antimicrobial Activity. […] After 18 hours the plates were read using a mirrored plate reader and reflected incandescent light. […] Wells at and above the MIC should appear void of growth when read by eye."}, "[19]": {"tested_on": "P. aeruginosa PA14", "assay": "Acute (immunocompetent) lung infection model", "settings": "immunocompetent mice, single intraperitoneal dose 15 mg/kg three hours post-infection, 100 hours"}, "[20]": {"settings": "numbers in parentheses are molar equivalents"}},
  "note": "Read-outs that look alike come from different tables or passages of the source. Square brackets hold non-standard residues; d marks the D form. Ends that are not written are not given here. Peptide text beside a SMILES is read from it.",
  "data": [
    {"molecule": "CC(C)(O/N=C(\\C(=O)N[C@@H]1C(=O)N2C(C(=O)[O-])=C(C[n+]3ccccc3)CS[C@H]12)c1csc(N)n1)C(=O)O", "note": "[Ceftazidime]", "values": [
      {"measurement": "MIC Pae 39324", "setting": "[1]", "result": "1 μg,/ml"},
      {"measurement": "MIC Pae 39324, molar equivalents", "setting": "[1]; [20]", "result": "(1.8)"},
      {"measurement": "MIC Pae 27853", "setting": "[2]", "result": "1 μg,/ml"},
      {"measurement": "MIC Pae 27853, molar equivalents", "setting": "[2]; [20]", "result": "(1.8)"},
      {"measurement": "Hemolysis MLC/MIC", "setting": "[3]", "result": 16},
      {"measurement": "Hemolysis PLC/MIC", "setting": "[3]", "result": 8},
      {"measurement": "antibiotic resistance phenotype", "setting": "[4]", "result": "I/R"},
      {"measurement": "CC50", "setting": "[5]; Cytotox CC50, concentration at which 50% cytotoxicity of mammalian cells is observed", "result": 550, "unit": "µg/mL"},
      {"measurement": "Human Serum hsMIC/MIC", "setting": "[6]", "result": 1},
      {"measurement": "antibiotic resistance phenotype", "setting": "[7]", "result": "S"},
      {"measurement": "antibiotic resistance phenotype", "setting": "[8]", "result": "S"},
      {"measurement": "antibiotic resistance phenotype", "setting": "[9]", "result": "S"},
      {"measurement": "MIC Eco 25922", "setting": "[10]", "result": "0.25 μg,/ml"},
      {"measurement": "MIC Eco 25922, molar equivalents", "setting": "[10]; [20]", "result": "(0.5)"},
      {"measurement": "antibiotic resistance phenotype", "setting": "[11]", "result": "S"},
      {"measurement": "MIC Sau 29213", "setting": "[12]", "result": "4 μg,/ml"},
      {"measurement": "MIC Sau 29213, molar equivalents", "setting": "[12]; [20]", "result": "(7.3)"},
      {"measurement": "antibiotic resistance phenotype", "setting": "[13]", "result": "S"},
      {"measurement": "antibiotic resistance phenotype", "setting": "[14]", "result": "S"}
    ]},
    {"molecule": "CC[C@@H](C)[C@@H](NC(=O)[C@H](NC(=O)[C@@H](CCCNC(=N)N)NC(=O)[C@H]1CCCN1C(=O)[C@@H](CCCCN)NC(=O)[C@@H](CCCCN)NC(=O)[C@@H](Cc1ccccc1)NC(=O)[C@@H](Cc1ccccc1)NC(=O)[C@@H](CCC(=O)O)NC(=O)[C@@H](CCCCN)NC(=O)[C@@H](C)NC(=O)[C@@H](CCCNC(=N)N)NC(=O)[C@@H](CCCCN)NC(=O)[C@@H](CCCCN)NC(=O)[C@H](NC(=O)[C@@H](CO)NC(=O)[C@@H](CCCCN)NC(=O)[C@@H](CCCCN)NC(=O)[C@@H](CC(C)C)NC(=O)[C@@H](CCCCN)NC(=O)[C@@H](CCCNC(=N)N)NC(=O)[C@@H](Cc1ccccc1)NC(=O)[C@@H](Cc1ccccc1)NC(=O)[C@@H](CCCCN)NC(=O)CNC(=O)CNC(=O)CN)C(C)C)C(C)C)C(=O)NCC(=O)N[C@@H](C(=O)N[C@H](CO)C(=O)N[C@@H](C(=O)N1CCC[C@@H]1C(=O)N[C@H](Cc1ccccc1)C(=O)O)[C@H](C)CC)C(C)C", "note": "[Peptide D297] (H-GGG[dK][dF][dF][dR][dK][dL][dK][dK][dS][dV][dK][dK][dR][dA][dK][dE][dF][dF][dK][dK][dP][dR][dV][dI]G[dV][dS][dI][dP][dF]-OH)", "values": [
      {"measurement": "cytotoxic activity against mammalian cells", "setting": "[15]", "result": "low hemolytic and cytotoxic activity"},
      {"measurement": "serum stability", "setting": "[16]", "result": "stable in serum"},
      {"measurement": "serum stability", "setting": "[16]; listed as (D)-P297", "result": "more stable than (L)-P297"},
      {"measurement": "hemolytic activity", "setting": "[17]", "result": "low hemolytic and cytotoxic activity"}
    ]},
    {"molecule": "GGGHTASDAAAAAALTAANAAAAAAASMA [Peptide P292]", "values": [
      {"measurement": "MIC Pae 39324", "setting": "[1]", "result": ">128 μg,/ml"},
      {"measurement": "MIC Pae 27853", "setting": "[2]", "result": ">128 μg,/ml"},
      {"measurement": "CC50", "setting": "[5]", "result": 250, "unit": "µg/mL"},
      {"measurement": "MIC Eco 25922", "setting": "[10]", "result": ">128 μg,/ml"},
      {"measurement": "MIC Sau 29213", "setting": "[12]", "result": ">128 μg,/ml"}
    ]},
    {"molecule": "GGGKLLRKLKKSVKKRAKELLKKPRVIGVSIPL [Peptide P369]", "values": [
      {"measurement": "potency against P. aeruginosa", "setting": "[18]", "result": "more potent peptide"}
    ]},
    {"molecule": "cathelicidin-BF", "values": [
      {"measurement": "cytotoxic activity against mammalian cells", "setting": "[15]", "result": "inability to kill mammalian cells"},
      {"measurement": "potency against P. aeruginosa", "setting": "[18]", "result": "potent MIC values against multiple P. aeruginosa strains"},
      {"measurement": "hemolytic activity", "setting": "[17]", "result": "low hemolytic activity"}
    ]},
    {"molecule": "B1", "values": [
      {"measurement": "survival", "setting": "[19]", "result": "no survival benefit"}
    ]}
  ]
}
